# Marks after values point to notes of the source that are not given here.
# Tests used:
# [1] = tested on: DNBS-Induced Inflammatory Bowel Disease Models in Rats; experiment: Biological Example 1: DNBS-induced inflammatory bowel disease models in rats; format: in vivo, Wistar rats; conditions: for Adhesion Degree / Colon MPO Activity / Colon Weight / Colon weight to length ratio / Ulcer Area: sixth day, Mean ± SD
# Method: Wistar rats, male, body weight of 100-120 g.
# 90 male Wistar rats were fasted for 40 hours. A 5% glucose injection was administered subcutaneously during fasting. 60 rats with normal conditions and moderate body weight were selected from the fasting rats. The animals were randomly divided into 6 groups according to the body weight: normal control group, model control group, sulfasalazine group (300 mg/Kg), and the compound in Example 27 groups consisting of 5, 15 and 30 mg/Kg dose groups. There were 10 rats in each group. The animals were anesthetized with ether. A specially made gavage device (made by a rat gavage device having the diameter of 2 mm, which was nested on a mouse gavage device having the diameter of 1 mm) was slowly inserted into the enteric cavity at 8 cm from the anus. The model control group, the sulfasalazine group and the compound in Example 27 groups were administered with 0.5 mL of 50 mg/mL DNBS in 30% ethanol solution. The normal control group was administered with 0.5 mL of 30% ethanol solution. The animals were inverted in anesthesia for 15 minutes after the gavage device was removed. The day when the model was prepared was the first day of the experiment. After 4 hours of DNBS induction, the corresponding drug or the corresponding volume of 1% CMC-Na was administered once per day. The body weights were recorded and the stool characteristics were scored. On the sixth day of the experiment colon tissues were taken from the animals to observe the results of each index.
# The compound in Example 27 and sulfasalazine: Preparation Method: Suspended with 1% CMC-Na, and prepared when it was needed.
# Animals were euthanized on the sixth day of the experiment to observe the results of each index. After the animals were sacrificed, colons were obtained. The adhesion degree of colon was observed and the length of the colon was measured. The ulcer area was calculated after removing the contents in the colon and the weight of the colon tissue was weighed. The colon tissue was longitudinally divided into two parts. One part of the colon tissue was fixed in 10% formalin solution for later use. The other part of the colon tissue was put into the liquid nitrogen to quickly frozen, and then was reserved at −80° C. for the detection of MPO.
# Calculation method for ulcer area: length of ulcer point (cm)×width of ulcer point (cm).
# The frozen tissue was ground into powder in liquid nitrogen. An appropriate amount of the powder was weighed and was added into 50 mM potassium phosphate solution (containing 0.5% cetyltrimethylammonium bromide) to give a 25 mg/mL solution. The resultant solution was homogenized by an electric homogenizer. 1 mL of suspension was centrifuged to give a supernatant. 7 μL of the supernatant was added into a 96-well plate and 200 μL of o-dianisidine mixture (containing 0.167 mg/mL o-dianisidine and 0.0006% H2O2 potassium phosphate buffer). OD values of the resultant solution at 0, 30, 60, and 90 s were detected at 450 nm of the microplate reader.
# Test for homogeneity of variance was performed with Spss13.0. Where variance of data was homogeneous (P>0.05), one-way ANOVA LSD test was performed. Where the analysis of variance was significant (P<0.05), then Dunnett's multiple comparison (parameter method) or Kruskal-Wallis non-parametric test was performed. Where the results of Kruskal-Wallis non-parametric test were significant (P<0.05), the Mann-Whitney U test was performed for pairwise comparison.
# [2] = tested on: DNBS-Induced Inflammatory Bowel Disease Models in Rats; experiment: Biological Example 3: DNBS-induced inflammatory bowel disease models in rats; format: in vivo, Wistar rats; conditions: 30 mg/Kg i.g. qd × 7; for Body weight: Mean ± SD
# Method: 102 male Wistar rats were fasted for 40 hours. A 5% glucose injection (10 mL/Kg) was administered subcutaneously during fasting. 72 rats with normal conditions and moderate body weight were selected from the fasting rats. The animals were randomly divided into 9 groups according to the body weight (see Table 9. Grouped Table).
# The animals were anesthetized with ether after 40 hours fasting. A specially made gavage device was slowly inserted into the enteric cavity at 8 cm from the anus. The model control group and each test group were administered with 0.5 mL of 50 mg/mL DNBS in 30% ethanol solution. The normal control group was administered with 0.5 mL of 30% ethanol solution. The animals were inverted in anesthesia for 15 minutes. The day when the model was prepared was day 0 of the experiment. After 4 hours of DNBS induction, the corresponding drug or the corresponding volume of 1% CMC-Na was administered once per day. On day 7 of the experiment, the animals were euthanized to score the colon adhesion degree, measure the length of colon and ulcer area, weigh colon and calculate the colon weight to length ratio.
# One-way ANOVA analysis of the length of colon and colon weight per length of rats was performed by SPSS22. Statistical analyses between groups were performed. The adhesion degree was scored. Mann-Whitney U non-parametric test was performed on ulcer area. Statistical analyses between groups were performed.
# Calculation Formula of Inhibitory rate of weight increase per length: (Colon weight to length ratio in model group−Colon weight to length ratio in administration group)/(Colon weight to length ratio in model group−Colon weight to length ratio in blank group)
compound,measurement,setting,value
"COCCN1C(=O)CCC(N2C(=O)c3cccc(N)c3C2=O)C1=O (stereo not shown) [Example 27, 4-amino-2-(1-(2-methoxyethyl)-2,6-dioxopiperidin-3-yl)isoindolin-1,3-dione]",Adhesion Degree,[1]; 5 mg/Kg i.g. qd × 6,0.4 ± 0.7 Point
same,Colon MPO Activity,[1]; 5 mg/Kg i.g. qd × 6,20.3 ± 19.8 U/mg
same,Colon Weight,[1]; 5 mg/Kg i.g. qd × 6,1775.7 ± 321.0 mg
same,Colon weight to length ratio,[1]; 5 mg/Kg i.g. qd × 6,144.2 ± 30.5 mg/cm
same,Ulcer Area,[1]; 5 mg/Kg i.g. qd × 6,0.8 ± 0.9 cm^2
same,therapeutic effect (in words),"[1]; 5 mg/Kg, 15 mg/Kg and 30 mg/Kg",a certain dose effect and a good therapeutic effect without the weight loss of animals
same,Adhesion Degree,[1]; 15 mg/Kg i.g. qd × 6,0.1 ± 0.3 Point
same,Colon MPO Activity,[1]; 15 mg/Kg i.g. qd × 6,16.7 ± 9.8 U/mg
same,Colon Weight,[1]; 15 mg/Kg i.g. qd × 6,1668.7 ± 245.3 mg
same,Colon weight to length ratio,[1]; 15 mg/Kg i.g. qd × 6,127.1 ± 13.7 mg/cm
same,Ulcer Area,[1]; 15 mg/Kg i.g. qd × 6,0.7 ± 0.9 cm^2
same,Adhesion Degree,[1]; 30 mg/Kg i.g. qd × 6,0.1 ± 0.3 Point
same,Colon MPO Activity,[1]; 30 mg/Kg i.g. qd × 6,15.1 ± 13.0 U/mg
same,Colon Weight,[1]; 30 mg/Kg i.g. qd × 6,1534.7 ± 156.2 mg
same,Colon weight to length ratio,[1]; 30 mg/Kg i.g. qd × 6,117.7 ± 19.4 mg/cm
same,Ulcer Area,[1]; 30 mg/Kg i.g. qd × 6,0.3 ± 0.5 cm^2
same,reduction of the ulcer area,"[1]; 30 mg/Kg, vs model control group",about 80%
same,Adhesion Degree of Colon,[2]; day 7,0.9 ± 0.4 point
same,Colon weight to length ratio,[2]; day 7,109 ± 12 mg/cm
same,Inhibitory rate of colon adhesion,[2]; day 7,47.1# %
same,Inhibitory rate of ulcer area of colon,[2]; day 7,99.7## %
same,Inhibitory rate of weight increase per length,[2]; day 7,58.2## %
same,Ulcer area of colon,[2]; day 7,0.01 ± 0.02## cm^2
same,Body weight,[2]; Day 0,135.4 ± 4.9 g
same,Body weight,[2]; Day 1,135.2 ± 4.2 g
same,Body weight,[2]; Day 2,136.7 ± 5.0 g
same,Body weight,[2]; Day 3,141.7 ± 7.5 g
same,Body weight,[2]; Day 4,150.1 ± 9.2 g
same,Body weight,[2]; Day 5,159.1 ± 10.3 g
same,Body weight,[2]; Day 6,165.2 ± 10.0 g
same,Body weight,[2]; Day 7,175.8 ± 8.2 g
